Holding throughout (type): cell-based
Data set [1] relates to human red blood cells (hRBC). To be noted: red cells of human, 1 h, 200 μg/mL. The method in brief:
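Peptides at 200 μg/mL incubated 1 h at 37 °C with 20% (v/v) washed human RBC, shaking. Hemolysis from supernatant OD540, expressed as percent of 2.5% Triton X-100 lysis, with PBS as 0%.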

Data set [2] concerns Klebsiella pneumoniae SSI3010. To be noted: SSI3010. The method, boiled down: (§1)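 MICs were determined by CLSI broth microdilution in cation-adjusted Mueller-Hinton II broth with about 5×10^5 CFU/mL inoculum. Peptides were tested in two-fold serial dilutions with 0.002% polysorbate 80 final. MIC in μg/mL is the lowest concentration with no visible growth after 18-20 h at 35 °C.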

Data set [3] deals with Escherichia coli ATCC 25922. Conditions: ATCC 25922. The method, boiled down: as §1
In data set [4] the test system is Escherichia coli MCR-1 Af 45. To be noted: MCR-1 Af 45. The method, boiled down: as §1

This note sets out measurements from patent US20240336654A1, “ANTIMICROBIAL PEPTIDOMIMETICS” (SPEXIS AG, priority 2021, published 2024).

Where a SMILES comes first, the peptide text is derived from it. Bridges are numbered along the chain shown (N, C = ends). [ ]: non-standard residue; d: D form. The star is where a group is joined. Val(Nα-amidino) = CC(C)[C@H](NC(=N)N)C(=O)*; Gly(cPent) = N[C@H](C(=O)O)C1CCCC1; Hyp = O=C(O)[C@@H]1C[C@@H](O)CN1; Cit = NC(=O)NCCC[C@H](N)C(=O)O; Agb = N=C(N)NCC[C@H](N)C(=O)O; Pen = CC(C)(S)[C@H](N)C(=O)O; dDab = NCC[C@@H](N)C(=O)O; Dab = NCC[C@H](N)C(=O)O A value given as a limit tells only on which side of the number the result lay.

`CC[C@H](C)[C@H](NC(=O)[C@@H]1C[C@@H](O)CN1C(=O)[C@@H](NC(=N)N)C(C)C)C(=O)N[C@H]1CCNC(=O)CC[C@@H](C(=O)N[C@@H](Cc2ccc(O)cc2)C(=O)O)NC(=O)[C@H](CCN)NC(=O)[C@H](CCN)NC(=O)[C@H](CCCCN)NC(=O)[C@@H](CCN)NC(=O)[C@H]([C@@H](C)O)NC(=O)[C@H](CCN)NC(=O)[C@H](CCCNC(=N)N)NC(=O)[C@H](CC(N)=O)NC(=O)[C@H](CCCNC(N)=O)NC(=O)[C@H](Cc2ccc(O)cc2)NC1=O` [Example 116, Gua-Val-Hyp-Ile-Dab-Tyr-Cit-Asn-Arg-Dab-Thr-^DDab-Lys-Dab-Dab-Glu-Tyr] ({Val(Nα-amidino)}-[Hyp]I[Dab]Y[Cit]NR[Dab]T[dDab]K[Dab][Dab]EY-OH; lactam 3-14): the “Hemolysis at 0.2 g/L” value in data set [1] is less than 1%. In data set [2], the “Klebsiella pneumoniae SSI3010 MIC” value was determined as 0.125 µg/mL. Also, in data set [3], the “Escherichia coli ATCC 25922 MIC” value worked out at 0.0625 µg/mL. Further, the “Escherichia coli MCR-1 Af45 MIC” value in data set [4] was found to be 0.0625 µg/mL.
Turning to `CC(C)[C@H](NC(=N)N)C(=O)N1C[C@H](O)C[C@H]1C(=O)N[C@H](C(=O)N[C@@H]1C(=O)N[C@@H](Cc2ccc(O)cc2)C(=O)N[C@@H]([C@@H](C)O)C(=O)N[C@@H](CC(N)=O)C(=O)N[C@@H](CCCNC(=N)N)C(=O)N[C@@H](CCN)C(=O)N[C@@H]([C@@H](C)O)C(=O)N[C@H](CCN)C(=O)N[C@@H](CO)C(=O)N[C@@H](CCN)C(=O)N[C@@H](CCN)C(=O)N[C@H](C(=O)N[C@@H](Cc2ccc(O)cc2)C(=O)O)CSSC1(C)C)C1CCCC1` [Example 134, Gua-Val-Hyp-Cpg-Pen-Tyr-Thr-Asn-Arg-Dab-Thr-^DDab-Ser-Dab-Dab-Cys-Tyr] ({Val(Nα-amidino)}-[Hyp][Gly(cPent)][Pen]YTNR[Dab]T[dDab]S[Dab][Dab]CY-OH; disulfide 3-14), the “Hemolysis at 0.2 g/L” value in data set [1] is less than 1%. In data set [2], the “Klebsiella pneumoniae SSI3010 MIC” value worked out at 0.25 µg/mL. Also, in data set [3], the “Escherichia coli ATCC 25922 MIC” value turned out to be 0.125 µg/mL. Also, the “Escherichia coli MCR-1 Af45 MIC” value in data set [4] is 0.125 µg/mL.
For `CC[C@H](C)[C@H](NC(=O)[C@@H]1C[C@@H](O)CN1C(=O)[C@@H](NC(=N)N)C(C)C)C(=O)N[C@@H]1C(=O)N[C@@H](Cc2ccc(O)cc2)C(=O)N[C@@H](CCN)C(=O)N[C@@H](CC(N)=O)C(=O)N[C@@H](CCCNC(=N)N)C(=O)N[C@@H](CCN)C(=O)N[C@@H]([C@@H](C)O)C(=O)N[C@H](CCN)C(=O)N[C@@H](CCN)C(=O)N[C@@H]([C@@H](C)O)C(=O)N[C@@H](CO)C(=O)N[C@H](C(=O)N[C@@H](Cc2ccc(O)cc2)C(=O)O)CSSC1(C)C` [Example 129, Gua-Val-Hyp-Ile-Pen-Tyr-Dab-Asn-Arg-Dab-Thr-^DDab-Dab-Thr-Ser-Cys-Tyr] ({Val(Nα-amidino)}-[Hyp]I[Pen]Y[Dab]NR[Dab]T[dDab][Dab]TSCY-OH; disulfide 3-14), the “Hemolysis at 0.2 g/L” value in data set [1] is listed as less than 1%. The “Klebsiella pneumoniae SSI3010 MIC” value in data set [2] was 0.5 µg/mL. The “Escherichia coli ATCC 25922 MIC” value in data set [3] was 0.125 µg/mL. The “Escherichia coli MCR-1 Af45 MIC” value in data set [4] was determined as 0.125 µg/mL.
For the compound `CC[C@H](C)[C@H](NC(=O)[C@@H]1C[C@@H](O)CN1C(=O)[C@@H](NC(=N)N)C(C)C)C(=O)N[C@H]1CCNC(=O)CC[C@@H](C(=O)N[C@@H](Cc2ccc(O)cc2)C(=O)O)NC(=O)[C@H](CCN)NC(=O)[C@H](CCN)NC(=O)[C@H](CCCCN)NC(=O)[C@@H](CCN)NC(=O)[C@H](CO)NC(=O)[C@H](CCN)NC(=O)[C@H](CCCNC(=N)N)NC(=O)[C@H](CC(N)=O)NC(=O)[C@H](CO)NC(=O)[C@H](Cc2ccc(O)cc2)NC1=O` [Example 84, Gua-Val-Hyp-Ile-Dab-Tyr-Ser-Asn-Arg-Dab-Ser-^DDab-Lys-Dab-Dab-Glu-Tyr] ({Val(Nα-amidino)}-[Hyp]I[Dab]YSNR[Dab]S[dDab]K[Dab][Dab]EY-OH; lactam 3-14), the “Hemolysis at 0.2 g/L” value in data set [1] is less than 1%. Moreover, the “Klebsiella pneumoniae SSI3010 MIC” value in data set [2] was 0.125 µg/mL. The “Escherichia coli ATCC 25922 MIC” value in data set [3] worked out at 0.0625 µg/mL. In data set [4], the “Escherichia coli MCR-1 Af45 MIC” value is 0.03125 µg/mL.
As for `CC[C@H](C)[C@H](NC(=O)[C@@H]1C[C@@H](O)CN1C(=O)[C@@H](NC(=N)N)C(C)C)C(=O)N[C@@H]1C(=O)N[C@@H](Cc2ccc(O)cc2)C(=O)N[C@@H](CCN)C(=O)N[C@@H](CC(N)=O)C(=O)N[C@@H](CCCNC(=N)N)C(=O)N[C@@H](CCN)C(=O)N[C@@H]([C@@H](C)O)C(=O)N[C@H](CCN)C(=O)N[C@@H](CCCCN)C(=O)N[C@@H]([C@@H](C)O)C(=O)N[C@@H](CO)C(=O)N[C@H](C(=O)N[C@@H](Cc2ccc(O)cc2)C(=O)O)CSSC1(C)C` [Example 74, Gua-Val-Hyp-Ile-Pen-Tyr-Dab-Asn-Arg-Dab-Thr-^DDab-Lys-Thr-Ser-Cys-Tyr] ({Val(Nα-amidino)}-[Hyp]I[Pen]Y[Dab]NR[Dab]T[dDab]KTSCY-OH; disulfide 3-14), the “Hemolysis at 0.2 g/L” value in data set [1] is recorded as less than 1%. Further, in data set [2], the “Klebsiella pneumoniae SSI3010 MIC” value amounted to 0.25 µg/mL. Further, the “Escherichia coli ATCC 25922 MIC” value in data set [3] amounted to 0.25 µg/mL. In addition, the “Escherichia coli MCR-1 Af45 MIC” value in data set [4] is 0.25 µg/mL.
Take `CC[C@H](C)[C@H](NC(=O)[C@@H]1C[C@@H](O)CN1C(=O)[C@@H](N)C(C)C)C(=O)N[C@@H]1C(=O)N[C@@H](CO)C(=O)N[C@@H](CO)C(=O)N[C@@H](CC(N)=O)C(=O)N[C@@H](CCCNC(=N)N)C(=O)N[C@@H](CCN)C(=O)N[C@@H]([C@@H](C)O)C(=O)N[C@H](CCN)C(=O)N[C@@H](CCCCN)C(=O)N[C@@H](CCN)C(=O)N[C@@H](CCN)C(=O)N[C@H](C(=O)N[C@@H](Cc2ccc(O)cc2)C(=O)O)CSSC1(C)C` [Example 14, Val-Hyp-Ile-Pen-Ser-Ser-Asn-Arg-Dab-Thr-^DDab-Lys-Dab-Dab-Cys-Tyr] (H-V[Hyp]I[Pen]SSNR[Dab]T[dDab]K[Dab][Dab]CY-OH; disulfide 4-15): in data set [1], the “Hemolysis at 0.2 g/L” value is reported as less than 1%. The “Klebsiella pneumoniae SSI3010 MIC” value in data set [2] was 0.5 µg/mL. In data set [3], the “Escherichia coli ATCC 25922 MIC” value worked out at 0.5 µg/mL. In addition, in data set [4], the “Escherichia coli MCR-1 Af45 MIC” value is 0.25 µg/mL.
With `CC[C@H](C)[C@H](NC(=O)[C@@H]1C[C@@H](O)CN1C(=O)[C@@H](N)C(C)C)C(=O)N[C@@H]1C(=O)N[C@@H](Cc2ccc(O)cc2)C(=O)N[C@@H](CO)C(=O)N[C@@H](CC(N)=O)C(=O)N[C@@H](CCCNC(=N)N)C(=O)N[C@@H](CCNC(=N)N)C(=O)N[C@@H]([C@@H](C)O)C(=O)N[C@H](CCN)C(=O)N[C@@H](CCCCN)C(=O)N[C@@H](CCN)C(=O)N[C@@H](CCN)C(=O)N[C@H](C(=O)N[C@@H](Cc2ccc(O)cc2)C(=O)O)CSSC1(C)C` [Example 30, Val-Hyp-Ile-Pen-Tyr-Ser-Asn-Arg-Agb-Thr-^DDab-Lys-Dab-Dab-Cys-Tyr] (H-V[Hyp]I[Pen]YSNR[Agb]T[dDab]K[Dab][Dab]CY-OH; disulfide 4-15), in data set [1], the “Hemolysis at 0.2 g/L” value is less than 1%. For the same compound, the “Klebsiella pneumoniae SSI3010 MIC” value in data set [2] was determined as 0.125 µg/mL. Moreover, the “Escherichia coli ATCC 25922 MIC” value in data set [3] was determined as 0.125 µg/mL. The “Escherichia coli MCR-1 Af45 MIC” value in data set [4] was 0.0625 µg/mL.
